Experimental data reported in paper PMC6450673, “Targeted degradation of aberrant tau in frontotemporal dementia patient-derived neuronal cell models” (eLife, 2019).

How the values were obtained:
[1] = tested on: total tau (TAU5) in A152T neurons; test: Western blot of total tau in A152T neurons; assay type: cell-based, human; settings: pre-treatment 6 hr then 1 μM QC-01–175 for 18 hr, western blot
From the text: (§1) Cells from individuals carrying the tau risk variant A152T (c.1407G > A; NCBI RefSeq NM_001123066, rs143624519), the autosomal dominant mutation P301L (c.C1907T; NCBI NM_001123066, rs63751273), or age-matched non-mutant WT tau were employed in this study (Figure 2—source data 1). Dermal fibroblasts from the tau-P301L carrier and the healthy individual were generated from a skin biopsy from subjects within the MGH Frontotemporal Disorders Unit as part of the MGH Neurodegeneration Repository. Approval for human subjects’ work was obtained under a Partners/MGH-approved IRB Protocol (#2010P001611/MGH). Fibroblasts were reprogrammed into iPSCs, which were subsequently converted into cortical-enriched neural progenitor cells (NPCs) and differentiated into neuronal cells as previously described ([Almeida et al., 2012]; [Seo et al., 2017]; [Silva et al., 2016]; [Sheridan et al., 2011]) (Silva MC, Manuscript in preparation, 2019). Briefly, cells were cultured in 6-well (Fisher Scientific Corning, Pittsburgh, PA) or 96-well (Fisher Scientific Corning) plates coated with poly-ornithine (20 μg/mL in water, Sigma, St. Louis, MO) and laminin (5 μg/mL in PBS, Sigma) (POL-coated), in DMEM/F12-B27 media [70% DMEM (Gibco, Carlsbad, CA), 30% Ham’s-F12 (Fisher Scientific Corning), 2% B27 (Gibco), 1% penicillin-streptomycin (Gibco)]. Media was supplemented with EGF (20 ng/mL, Sigma), FGF (20 ng/mL, Stemgent, Cambridge, MA) and heparin (5 μg/mL, Sigma), to promote NPC proliferation and expansion. The growth factors were withdrawn to promote neural differentiation for 6 to 8 weeks, with half media change two times per week. Cell lines’ identity was authenticated by SANGER sequencing, karyotyping and ACGH analysis at different stages of culture maintenance from iPSC to NPC. All working cell lines tested negative for mycoplasma contamination.
(§2) Compound treatment in six-well plates was performed in 2 mL media volume by removing 1 mL of conditioned media from the culture and adding 1 mL of new media pre-mixed with the compound at the appropriate 2X concentration, followed by incubation at 37°C for the designated period of time. Compound treatment in 96-well plates was performed in 100 μL media volume by adding compound directly to each well, followed by incubation at 37°C. When testing the effect of drug pre-treatment, the first compound was added as described above for the period of time needed, and then QC-01–175 was added directly onto the media without media exchange.
(§3) Neurons differentiated in six-well plates for 6 weeks were washed and collected in PBS, lysed in RIPA buffer (Boston Bio-Products, Boston, MA) supplemented with 2% SDS (Sigma), protease inhibitors cocktail (Roche Complete Mini tablets, Mannheim, Germany), and phosphatase inhibitors cocktail (Sigma), followed by water sonication (Bransonic Ultrasonic Baths, Thomas Scientific, Danbury, CT) and 20,000 g centrifugation for 20 min. Supernatants were transferred to new tubes and total protein concentration was quantified with the Pierce BCA Protein Assay Kit (ThermoFisher Scientific, Carlsbad, CA). Human recombinant tau protein ladder was purchased from Sigma. Electrophoresis were performed with the Novex NuPAGE SDS-PAGE Gel System (Invitrogen, Carlsbad, CA), by running 10 μg of total protein (pre-boiled in SDS-DTT loading buffer, NEB, Ipswich, MA) on pre-cast SDS-PAGE. Gels were transferred onto PVDF membranes (EMD Millipore) using standard procedures. Membranes were blocked in 5% BSA (Sigma) in Tris-buffered saline with Tween-20 (TBST/Biorad, Hercules, CA) for 2 hr, incubated overnight with primary antibody (see antibody section) at 4°C, followed by corresponding HRP-linked secondary antibody incubation (Cell Signaling Technology, Danvers, MA). […]

[2] = molecular target: T1, recombinant human tau Tau-441(A152T) (Homo sapiens, UniProt P10636, A469T); test: Bio-layer interferometry (BLI) biosensor assay, tau A152T; assay type: binding; settings: BLI steady-state analysis, immobilized biotinylated tau; Figure 1—figure supplement 1B; read-out: KD, Tau A152T
T1 construct: biotin (chemical label, NHS-PEG4); purchased SignalChem T08-56VN; host or cells: E. coli
Procedure: BLI was performed in the Octet Red384 instrument (ForteBio, Fremont CA, USA) with 1X PBS and 0.01% Brij-35 as the assay buffer. […] The biotinylated protein samples for BLI were purified in 1X phosphate buffered saline (PBS). Streptavidin (SA) sensors were used to measure the biophysical interaction between the small molecules and biotinylated tau. Prior to the initiation of BLI, the SA sensors were soaked by dipping in 200 μL of assay buffer in a 96-well Greiner Bio-One Black flat bottom plate (Greiner, Monroe NC, USA Cat.655209). The assay was performed in 80 μL volume in Greiner Bio-One 384-well black flat bottom PP plates (Greiner, Cat.781209) with an initial baseline step, followed by loading of 250 nM biotinylated tau protein. The small molecules samples and recombinant proteins were arranged in the 384-well plate according to a plate map recommended for the eight-channel mode kinetic analysis, where the sensors move from low to high concentration of small molecule samples. Subsequent steps included a second baseline (120 s), followed by association (240 s) and dissociation (240 s) cycles. […] Data analysis was performed using Data Acquisition HT 11.0 software following reference subtraction (an average of two sensors with DMSO) using a 1:1 binding model and an individual fit of each replicate. The equilibrium dissociation constant (KD) was estimated using data at equilibrium from each available small molecule concentration with steady-state analysis. The instrument manufacturer (Fortebio, article #137) recommends the steady state option for analyzing interactions that are either low affinity or very fast on-and-off affinity rates. […] When Req option is selected, Fortebio’s software calculates affinity constants based on the Req values determined from the curve fits. In the steady-state analysis, Req is plotted against the small molecule concentration to infer the Rmax. […] As per the instrument manufacturer’s instructions, if all curves have reached equilibrium, these two sets of values correspond to ‘Response,’ and Req values should match. […]

[3] = molecular target: T2, recombinant human tau Tau-441(WT) (Homo sapiens, UniProt P10636); test: Bio-layer interferometry (BLI) biosensor assay, tau WT; assay type: binding; settings: BLI steady-state analysis, immobilized biotinylated tau; Figure 1—figure supplement 1B
T2 construct: biotin (chemical label, NHS-PEG4); purchased SignalChem T08-54BN; host or cells: E. coli
Procedure: (§4) BLI was performed in the Octet Red384 instrument (ForteBio, Fremont CA, USA) with 1X PBS and 0.01% Brij-35 as the assay buffer. […] The biotinylated protein samples for BLI were purified in 1X phosphate buffered saline (PBS). Streptavidin (SA) sensors were used to measure the biophysical interaction between the small molecules and biotinylated tau. Prior to the initiation of BLI, the SA sensors were soaked by dipping in 200 μL of assay buffer in a 96-well Greiner Bio-One Black flat bottom plate (Greiner, Monroe NC, USA Cat.655209). The assay was performed in 80 μL volume in Greiner Bio-One 384-well black flat bottom PP plates (Greiner, Cat.781209) with an initial baseline step, followed by loading of 250 nM biotinylated tau protein. The small molecules samples and recombinant proteins were arranged in the 384-well plate according to a plate map recommended for the eight-channel mode kinetic analysis, where the sensors move from low to high concentration of small molecule samples. Subsequent steps included a second baseline (120 s), followed by association (240 s) and dissociation (240 s) cycles. […] When Req option is selected, Fortebio’s software calculates affinity constants based on the Req values determined from the curve fits. […]

[4] = molecular target: T3, recombinant human tau Tau-441(P301L) (Homo sapiens, UniProt P10636, P618L); test: Bio-layer interferometry (BLI) biosensor assay, tau P301L; assay type: binding; settings: BLI steady-state analysis, immobilized biotinylated tau; Figure 1—figure supplement 1B
T3 construct: biotin (chemical label, NHS-PEG4); purchased SignalChem T08-56FN; host or cells: E. coli
Procedure: as §4

[5] = molecular target: monoamine oxidase (MAO); test: Monoamine oxidase (MAO-Glo) activity assay; assay type: biochemical; settings: four parameter fit; for IC50: 60-min reaction, read-out: MAO Dose Response IC50
Procedure: The Monoamine oxidase (MAO) activity measurements were performed using a MAO-Glo assay kit (Promega, Madison, WI), in a 384-well plate (Proxiplate 384 Plus, Perkin Elmer, Waltham, MA) with the miniaturization of final assay volume to 20 µL, as per the manufacturer’s instructions. In brief, MAO reactions were terminated after a 60-min enzymatic reaction, by the addition of reconstituted Luciferin Detection Reagent. Following a 20-min incubation with the detection reagent, the luminescence was measured using a multi-label plate reader (Envision, Perkin Elmer). IC50 values were estimated by fitting percentage inhibition vs. compound concentration in a variable slope (four parameter) fit.

[6] = tested on: P-tau S396 in A152T neurons; test: Western blot of P-tau S396 in A152T neurons; assay type: cell-based, human; settings: 24 hr, across biological replicates
From the text: as §1, §2, §3

T1 sequence (P10636 1-441 isoform P10636-8 A152T): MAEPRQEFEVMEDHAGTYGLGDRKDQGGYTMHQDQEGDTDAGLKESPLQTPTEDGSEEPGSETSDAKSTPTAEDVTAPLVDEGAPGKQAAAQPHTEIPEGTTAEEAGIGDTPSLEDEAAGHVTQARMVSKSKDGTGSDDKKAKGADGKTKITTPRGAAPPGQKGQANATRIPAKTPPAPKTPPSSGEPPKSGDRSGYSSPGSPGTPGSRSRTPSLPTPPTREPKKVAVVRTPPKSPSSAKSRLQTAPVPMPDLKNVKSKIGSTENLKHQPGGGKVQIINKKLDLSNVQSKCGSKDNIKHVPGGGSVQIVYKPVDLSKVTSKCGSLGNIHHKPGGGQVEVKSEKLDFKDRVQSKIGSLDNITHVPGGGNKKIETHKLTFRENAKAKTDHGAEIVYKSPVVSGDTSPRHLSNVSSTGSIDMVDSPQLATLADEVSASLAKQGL
T2 sequence (P10636 1-441 isoform P10636-8): as the sequence (P10636 1-441 isoform P10636-8 A152T) above, with T152A counted along it
T3 sequence (P10636 1-441 isoform P10636-8 P301L): as the sequence (P10636 1-441 isoform P10636-8 A152T) above, with T152A, P301L counted along it

SMILES: NS(=O)(=O)OC[C@@H]1C[C@@H](n2ccc3c(N[C@H]4CCc5ccccc54)ncnc32)C[C@@H]1O [MLN4924, reference compound]
- effect of 6 hr pre-treatment on QC-01–175-mediated tau degradation (total tau and P-tau S396) [1]: caused a concentration-dependent rescue of the effect of QC-01–175

SMILES: CC(C)C[C@H](NC(=O)[C@H](CCc1ccccc1)NC(=O)CN1CCOCC1)C(=O)N[C@@H](Cc1ccccc1)C(=O)N[C@@H](CC(C)C)C(=O)[C@@]1(C)CO1 [carfilzomib, Carfilzomib, reference compound]
- effect of 6 hr pre-treatment on QC-01–175-mediated tau degradation (total tau and P-tau S396) [1]: caused a concentration-dependent rescue of the effect of QC-01–175

SMILES: COc1cc(OCc2ccccn2)ccc1/C=C/c1cc(/C=C/c2ccc3cc[nH]c3c2)n[nH]1 [PE859, reference compound]
- Kd [2]: 22.1 ± 3.26 µM
- Kd [3]: 22 ± 2.78 µM
- Kd [4]: 8.8 ± 1.11 µM

SMILES: N[C@@H]1C[C@H]1c1ccccc1 (racemic) [Parnate, Tranylcypromine]
- IC50 [5]: 0.057 µM
- MAO Dose Response Hill Slope [5]: 1.504
- MAO Dose Response Log IC50 [5]: -1.240

SMILES: Nc1cccc2c1CN(C1CCC(=O)NC1=O)C2=O (centres unmarked) [lenalidomide, Lenalidomide, reference compound]
- effect of 6 hr pre-treatment on QC-01–175-mediated tau degradation (total tau and P-tau S396) [1]: reversed QC-01–175-mediated tau degradation in a concentration-dependent manner
- up-regulation of P-tau S396 ([6]; 1 μM): ~ 30%
- up-regulation of P-tau S396 ([6]; 10 μM): ~90%

SMILES: CO/C1=C\C(C)=C\[C@@H](C)[C@@H](O)[C@@H](C)C/C(C)=C/C=C/[C@H](OC)[C@@H]([C@@H](C)[C@@H](O)[C@H](C)[C@@]2(O)C[C@@H](O)[C@H](C)[C@@H](C(C)C)O2)OC1=O [bafilomycin A1, Bafilomycin A1, reference compound]
- effect of 6 hr pre-treatment on QC-01–175-mediated tau degradation (total tau and P-tau S396) [1]: did not reverse the degrader effect and further promoted tau clearance

SMILES: Nc1cccc2c1C(=O)N(C1CCC(=O)NC1=O)C2=O (centres unmarked) [Pomalidomide]
- IC50 [5]: > 50 µM
- MAO Dose Response Hill Slope [5]: 0.108
